From patent US20130267494A1, “1,4-OXAZEPANE DERIVATIVES” (priority 2010, published 2013)
Where a name gives a salt, the structure may show the parent alone. Read-outs that look alike come from different tables or passages of the source.

Columns and labels:
Assay type in all cases: cell-based
[1] = molecular target: T1, human dopamine transporter (Homo sapiens, UniProt Q01959); assay: Inhibitory action on human dopamine transporter ([3H]-dopamine uptake in CHO cells); conditions: CHO, relative to inhibitory activity of 100 μM Nomifensine as 100%, read-out: inhibitory rate (%); for inhibition at 1 µM: compound 1 μM
T1 construct: expressed in transfected cells
T1 sequence (Q01959 whole entry): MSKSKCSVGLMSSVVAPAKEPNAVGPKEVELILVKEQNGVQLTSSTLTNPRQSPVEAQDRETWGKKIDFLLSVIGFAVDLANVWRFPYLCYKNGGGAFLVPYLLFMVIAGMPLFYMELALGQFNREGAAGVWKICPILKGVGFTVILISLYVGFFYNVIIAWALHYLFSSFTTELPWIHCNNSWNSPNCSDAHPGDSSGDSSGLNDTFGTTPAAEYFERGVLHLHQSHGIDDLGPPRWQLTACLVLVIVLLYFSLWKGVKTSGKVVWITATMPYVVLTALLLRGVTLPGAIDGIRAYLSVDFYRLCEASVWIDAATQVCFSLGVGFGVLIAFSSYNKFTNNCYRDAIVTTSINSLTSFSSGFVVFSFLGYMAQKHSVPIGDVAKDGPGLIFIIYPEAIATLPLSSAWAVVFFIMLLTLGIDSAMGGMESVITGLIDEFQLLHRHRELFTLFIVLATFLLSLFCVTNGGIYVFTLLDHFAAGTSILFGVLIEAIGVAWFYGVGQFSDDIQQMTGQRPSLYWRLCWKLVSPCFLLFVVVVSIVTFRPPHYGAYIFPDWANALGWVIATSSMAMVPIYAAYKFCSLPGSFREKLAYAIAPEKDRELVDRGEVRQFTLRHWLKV
Description: SRα promoter contained in pTB1411 described in JP-A-H5-076385 was cleaved with restriction enzyme […](manufactured by TAKARA BIO INC.), blunt-ended, further cleaved with restriction enzyme EcoRI (manufactured by TAKARA BIO INC.), and fragmented. On the other hand, pCI vector was cleaved with restriction enzyme BglII (manufactured by TAKARA BIO INC.), blunt-ended with T4 DNA polymerase, and further cleaved with restriction enzyme EcoRI (manufactured by TAKARA BIO INC.). Into this site was inserted an SRa promoter fragment to give pCI-SRa. Then, pCI-SRa was cleaved with restriction enzyme ClaI (manufactured by TAKARA BIO INC.) and blunt-ended. Into this site was inserted a 1.63 Kb fragment obtained by cleaving pGFP-C1 (manufactured by TOYOBO) with restriction enzyme Bsu36I (manufactured by Daiichi Pure Chemicals Co., Ltd.) followed by blunt-ending, whereby pMSRα neo was prepared. Human dopamine transporter cDNA was amplified from human substantia nigra cDNA library by PCR, and inserted into the pCRII vector (manufactured by Invitrogen). The base sequence was confirmed, modified and subcloned to pMSRα neo, whereby a human dopamine transporter expression plasmid was constructed.
(§1) The monoamine transporter expression plasmids thus prepared were introduced into CHO-K1 cells using FuGENE6 (manufactured by Roche Diagnostics) and according to the attached protocol, whereby each expressing cell was established.
CHO cells stably expressing human dopamine transporter were used for the measurement of human dopamine transporter inhibitory activity. Unless otherwise indicated, these CHO cells were cultured in Ham/F12 medium (Invitrogen) containing 10% fetal bovine serum (MOREGATE).
(§2) One day before the assay, the cultured cells that reached almost confluent were rinsed with PBS (Invitrogen), detached with Trypsin/EDTA (Invitrogen), and collected by a centrifugal operation. The obtained cells were counted, and diluted to 3×10^5 cells per 1 mL medium, and the mixture was dispensed to a 96 well white plate (Corning) at 100 μL per well, and cultured overnight in a CO2 incubator.
(§3) On the day of the test, an assay buffer (126 mM NaCl, 4.95 mM KCl, 1.26 mM KH2PO4, 1.26 mM MgSO4, 10 mM HEPES, 2.32 mM CaCl2, 5.52 mM Glucose, 0.5% BSA) was prepared, the medium in the cell plate was removed and the assay buffer was added by 80 μL. A test compound was diluted with the assay buffer to a 10-fold concentration of the final concentration, and the mixture was dispensed to a 96 well polypropylene plate. The diluted test compound was dispensed to the cell plate by 10 μL. [3H]-Dopamine (GE Healthcare) was diluted with the assay buffer to 200 nM, cold dopamine was diluted to 10 μM, and the mixture was dispensed to the cell plate by 10 μL. At 60 min from [3H]-dopamine addition, the assay buffer was removed by suction, and the plate was washed twice with 150 μL of PBS (Invitrogen) per well. Microscinti20 (PerkinElmer) was dispensed to each well by 100 μL, and the mixture was stirred for about 30 min. The radioactivity was measured by TopCount (PerkinElmer).
The inhibitory activity of each compound (10 μM) was calculated as a relative activity value based on the inhibitory activity of 100 μM Nomifensine (dopamine transporter inhibitor) as 100%.
The inhibitory activity of each compound (1 μM) was m calculated as a relative activity value based on the inhibitory activity of 100 μM Nomifensine (dopamine transporter inhibitor) as 100%.

[2] = molecular target: T2, human norepinephrine transporter (Homo sapiens, UniProt P23975); assay: Inhibitory action on human norepinephrine transporter ([3H]-norepinephrine uptake in CHO cells); conditions: CHO, relative to inhibitory activity of 10 μM DMI as 100%
T2 construct: expressed in transfected cells
T2 sequence (P23975 whole entry): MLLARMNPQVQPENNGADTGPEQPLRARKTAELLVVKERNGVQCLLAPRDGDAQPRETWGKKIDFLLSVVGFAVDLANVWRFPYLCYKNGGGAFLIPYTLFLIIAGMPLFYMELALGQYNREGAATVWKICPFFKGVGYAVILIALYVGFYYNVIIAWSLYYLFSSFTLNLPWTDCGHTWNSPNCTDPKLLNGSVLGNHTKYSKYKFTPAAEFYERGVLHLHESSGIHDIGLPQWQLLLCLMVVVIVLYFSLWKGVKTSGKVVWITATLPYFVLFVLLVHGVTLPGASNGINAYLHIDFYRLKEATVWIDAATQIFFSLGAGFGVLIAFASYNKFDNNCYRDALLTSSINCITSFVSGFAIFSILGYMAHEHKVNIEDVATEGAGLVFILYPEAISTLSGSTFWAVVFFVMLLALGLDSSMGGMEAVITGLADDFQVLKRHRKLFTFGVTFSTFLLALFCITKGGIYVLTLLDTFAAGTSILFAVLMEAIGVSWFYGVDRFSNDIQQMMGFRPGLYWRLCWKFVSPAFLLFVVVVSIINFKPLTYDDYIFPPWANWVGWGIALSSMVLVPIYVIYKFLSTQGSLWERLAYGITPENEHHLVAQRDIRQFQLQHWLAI
Description: (§4) Human serotonin transporter cDNA was amplified from human brain cDNA library by PCR, and inserted into pCRII-TOPO vector (manufactured by Invitrogen). The base sequence was confirmed and modified, and subcloned to pcDNA3.1 vector (manufactured by Invitrogen), whereby a human serotonin transporter expression plasmid was constructed. Human norepinephrine transporter cDNA was purchased from Invitrogen, and the base sequence was confirm and modified, and subcloned to pcDNA3.1 vector, whereby a human norepinephrine transporter expression plasmid was constructed.
as §1
CHO cells stably expressing human norepinephrine transporter were used for the measurement of human norepinephrine transporter inhibitory activity. Unless otherwise indicated, these CHO cells were cultured in Ham/F12 medium (Invitrogen) containing 10% fetal bovine serum (MOREGATE).
as §2, with “The” for “One day before the assay, the”
as §3, with “Then,” for “On the day of the test,”, “[3H]-Norepinephrine” for “[3H]-Dopamine”, “nM,” for “nM, cold dopamine was diluted to 10 μM,”, “45” for “60”, “[3H]-norepinephrine” for “[3H]-dopamine”
The inhibitory activity of each compound (10 μM) was calculated as a relative activity value based on the inhibitory activity of 10 μM DMI (norepinephrine transporter inhibitor) as 100%.
The inhibitory activity of each compound (1 μM) was calculated as a relative activity value based on the inhibitory activity of 10 μM DMI (norepinephrine transporter inhibitor) as 100%.

[3] = molecular target: T3, human serotonin transporter (Homo sapiens, UniProt P31645); assay: Inhibitory action on human serotonin transporter ([3H]-5-hydroxytryptamine uptake in CHO cells); conditions: CHO, relative to inhibitory activity of 10 μM Paroxetine as 100%, read-out: inhibitory rate (%); for inhibition at 1 µM: compound 1 μM
T3 construct: expressed in transfected cells
T3 sequence (P31645 whole entry): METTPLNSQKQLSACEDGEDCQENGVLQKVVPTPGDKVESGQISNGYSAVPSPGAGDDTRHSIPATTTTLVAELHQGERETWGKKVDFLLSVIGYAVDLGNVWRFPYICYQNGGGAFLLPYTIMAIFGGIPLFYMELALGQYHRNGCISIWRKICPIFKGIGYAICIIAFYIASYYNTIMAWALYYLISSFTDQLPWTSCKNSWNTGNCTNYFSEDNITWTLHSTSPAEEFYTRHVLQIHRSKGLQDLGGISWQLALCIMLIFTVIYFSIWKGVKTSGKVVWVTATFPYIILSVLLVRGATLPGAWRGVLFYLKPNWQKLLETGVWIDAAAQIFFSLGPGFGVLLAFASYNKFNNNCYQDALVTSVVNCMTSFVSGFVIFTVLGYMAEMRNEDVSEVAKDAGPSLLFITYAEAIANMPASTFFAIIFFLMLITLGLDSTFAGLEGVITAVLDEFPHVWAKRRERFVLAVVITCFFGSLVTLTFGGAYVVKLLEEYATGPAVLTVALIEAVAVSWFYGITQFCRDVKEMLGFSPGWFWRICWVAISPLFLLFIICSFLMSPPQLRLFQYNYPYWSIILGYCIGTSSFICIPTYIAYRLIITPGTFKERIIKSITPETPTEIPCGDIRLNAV
Description: as §4, §1
CHO cells stably expressing a human serotonin transporter were used for the measurement of human serotonin transporter inhibitory activity. Unless particularly indicated, these CHO cells were cultured in a Ham/F12 medium (Invitrogen) containing 10% fetal bovine serum (MOREGATE).
as §2, with “The” for “One day before the assay, the”, “medium,” for “medium, and”
as §3, with “Then,” for “On the day of the test,”, “[3H]-5-Hydroxytryptamine” for “[3H]-Dopamine”, “nM,” for “nM, cold dopamine was diluted to 10 μM,”, “20” for “60”, “[3H]-5-hydroxytryptamine” for “[3H]-dopamine”
The inhibitory activity of each compound (10 μM) was calculated as a relative activity value based on the inhibitory activity of 10 μM Paroxetine (serotonin transporter inhibitor) as 100%.
In addition, the inhibitory activity of each compound (1 μM) was calculated as a relative activity value based on the inhibitory activity of 10 μM Paroxetine (serotonin transporter inhibitor) as 100%.

[4] = read-out: inhibitory rate (%), compound 1 μM
[5] = compound 1 μM, read-out: inhibitory rate (%)

| SMILES | inhibition at 1 µM [1] [%] | inhibition at 1 µM [3] [%] | inhibition at 1 µM [2, 5] [%] | inhibition at 10 µM ([1]; compound 10 μM) [%] | inhibition at 10 µM ([2]; compound 10 μM, read-out: inhibitory rate (%)) [%] | inhibition at 10 µM ([3]; compound 10 μM, CHO cells expressing human serotonin transporter) [%] | inhibition at 1 µM [2, 4] [%] |
| --- | --- | --- | --- | --- | --- | --- | --- |
| NC(=O)NC[C@H]1CNCCO[C@@H]1c1ccc(Cl)c(Cl)c1 [Example 153, 1-{[(6R,7S)-7-(3,4-dichlorophenyl)-1,4-oxazepan-6-yl]methyl}urea monofumarate] | 49 | 93 | – | – | – | – | 95 |
| CC(=O)N[C@@H]1CNCCO[C@@H]1c1ccc(Cl)c(Cl)c1 (racemic) [Example 62, N-[(6RS,7RS)-7-(3,4-dichlorophenyl)-1,4-oxazepan-6-yl]acetamide monohydrochloride] | 64 | 98 | 100 | – | – | – | – |
| OC[C@@]1(c2ccc(Cl)c(Cl)c2)CCNCCO1 [Example 47, [(7S)-7-(3,4-dichlorophenyl)-1,4-oxazepan-7-yl]methanol monohydrochloride] | 9 | 82 | – | – | – | – | 99 |
| CC(=O)N(C)C[C@@H]1CNCCO[C@H]1c1ccc(Cl)c(Cl)c1 [Example 99, N-{[(6S,7R)-7-(3,4-dichlorophenyl)-1,4-oxazepan-6-yl]methyl}-N-methylacetamide monohydrochloride] | 94 | 99 | 98 | – | – | – | – |
| O=C1NCCCN1C[C@@H]1CNCCO[C@H]1c1ccc(Cl)c(F)c1 [Example 372, 1-{[(6S,7R)-7-(4-chloro-3-fluorophenyl)-1,4-oxazepan-6-yl]methyl}tetrahydropyrimidin-2(1H)-one monohydrochloride] | 97 | 98 | – | – | – | – | 103 |

Continued, in another order:

| inhibition at 1 µM [1] [%] | inhibition at 1 µM [3] [%] | inhibition at 1 µM [2, 5] [%] | inhibition at 10 µM ([1]; compound 10 μM) [%] | inhibition at 10 µM ([2]; compound 10 μM, read-out: inhibitory rate (%)) [%] | inhibition at 10 µM ([3]; compound 10 μM, CHO cells expressing human serotonin transporter) [%] | SMILES | inhibition at 1 µM [2, 4] [%] |
| --- | --- | --- | --- | --- | --- | --- | --- |
| 60 | 94 | 105 | – | – | – | CC(=O)N[C@H]1CNCCO[C@@H]1c1ccc(Cl)c(Cl)c1 [Example 240, N-[(6S,7R)-7-(3,4-dichlorophenyl)-1,4-oxazepan-6-yl]acetamide monohydrochloride] | – |
| 20 | 87 | 94 | 50 | 99 | 99 | CS(=O)(=O)NCC1(c2ccc(Cl)c(Cl)c2)CNCCCO1 (racemic) [Example 24, N-{[(2RS)-2-(3,4-dichlorophenyl)-1,4-oxazepan-2-yl]methyl}methanesulfonamide monohydrochloride] | – |
| 51 | 42 | 99 | – | – | – | OC[C@H]1OCCNC[C@H]1c1ccc(Cl)c(Cl)c1 [Example 447, [(6R,7S)-6-(3,4-dichlorophenyl)-1,4-oxazepan-7-yl]methanol monohydrochloride] | – |
| 99 | 41 | 104 | – | – | – | CC(=O)NC[C@H]1OCCNC[C@H]1c1ccc(Cl)c(Cl)c1 [Example 453, N-{[(6R,7S)-6-(3,4-dichlorophenyl)-1,4-oxazepan-7-yl]methyl}acetamide monohydrochloride] | – |
| 19 | 102 | 103 | – | – | – | O=C(NC[C@@H]1CNCCO[C@H]1c1ccc(Cl)c(F)c1)c1cc(-c2noc(=O)[nH]2)ccc1F [Example 357, N-{[(6S,7R)-7-(4-chloro-3-fluorophenyl)-1,4-oxazepan-6-yl]methyl}-2-fluoro-5-(5-oxo-4,5-dihydro-1,2,4-oxadiazol-3-yl)benzamide monohydrochloride] | – |
| 7 | 28 | 88 | – | – | – | OC[C@@H]1OCCNC[C@@H]1c1ccc(Cl)c(Cl)c1 [Example 448, [(6S,7R)-6-(3,4-dichlorophenyl)-1,4-oxazepan-7-yl]methanol monohydrochloride] | – |
